What all share (assay type): cell-based
Assay [1] deals with T1, RAR alpha (Homo sapiens, UniProt P10276).
T1 sequence (P10276 183-417 limits assumed): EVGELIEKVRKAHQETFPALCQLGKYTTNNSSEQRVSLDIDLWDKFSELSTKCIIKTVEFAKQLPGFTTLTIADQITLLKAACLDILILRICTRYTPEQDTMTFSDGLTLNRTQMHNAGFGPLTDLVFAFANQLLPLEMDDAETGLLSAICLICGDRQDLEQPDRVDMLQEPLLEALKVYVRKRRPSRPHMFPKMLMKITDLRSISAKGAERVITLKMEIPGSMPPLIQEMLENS
As to the kind of experiment: Transactivation test (luciferase reporter, HeLa cells), RAR alpha. The following applies: HeLa stable transfectants; for Kd: Schild regression against reference agonist 4-[2-(5,5,8,8-tetramethyl-5,6,7,8-tetrahydro-2-naphthyl)propenyl]benzoic acid, read-out: RAR alpha Kdapp; for IC50: reference ligand at the concentration that gives 80% activation. The procedure: (§1) The activation of receptors with an agonist (activator) in HeLa cells leads to the expression of a reporter gene, luciferase, which, in the presence of a substrate, generates light. The activation of the receptors may thus be measured by quantifying the luminescence produced after incubating the cells in the presence of a reference agonist. The inhibitory products displace the agonist from its site, thus preventing activation of the receptor. The activity is measured by quantifying the reduction in light produced. This measurement makes it possible to determine the inhibitory activity of the compounds according to the invention.
(§2) Determination of the Kdapp:
(§3) In this study, a constant is determined which represents the affinity of the molecule for the receptor. Since this value can fluctuate depending on the basal activity and the expression of the receptor, it is referred to as the Kdapparent (KdApp).
(§4) To determine this constant, “crossed curves” of the test product against a reference agonist, 4-[2-(5,5,8,8-tetramethyl-5,6,7,8-tetrahydro-2-naphthyl)propenyl]benzoic acid, are performed in 96-well plates. The test product is used at 10 concentrations and the reference agonist at 7 concentrations. In each well, the cells are in contact with a concentration of the test product and a concentration of the reference agonist, 4-[2-(5,5,8,8-tetramethyl-5,6,7,8-tetrahydro-2-naphthyl)propenyl]benzoic acid. Measurements are also taken for the total agonist (4-[2-(5,5,8,8-tetramethyl-5,6,7,8-tetrahydro-2-naphthyl)propenyl]benzoic acid) and inverse agonist, 4-{(E)-3-[4-(4-tert-butylphenyl)-5,5,8,8-tetramethyl-5,6,7,8-tetrahydro-2-naphthyl]-3-oxopropenyl}benzoic acid, controls.
(§5) These crossed curves make it possible to determine the AC50 values (concentration at which 50% activation is observed) for the reference ligand at various concentrations of test product. These AC50 values are used to calculate the Schild regression by plotting a straight line corresponding to the Schild equation (“quantitation in receptor pharmacology” Terry P. Kenakin, Receptors and Channels, 2001, 7, 371-385).
(§6) In the case of an antagonist, an IC50 value (concentration that inhibits 50% of the activity) is calculated by plotting the curve of the product at the concentration of the reference ligand that gives 80% activation.
(§7) The HeLa cell lines used are stable transfectants containing the plasmids ERE-βGlob-Luc-SV-Neo (reporter gene) and RAR (α, β, γ) ER-DBD-puro. These cells are inoculated into 96-well plates at a rate of 10 000 cells per well in 100 μl of DMEM medium without phenol red, and supplemented with 10% defatted calf serum. The plates are then incubated at 37° C. and 7% CO2 for 4 hours.
(§8) The various dilutions of the test products, of the reference ligand (4-[2-(5,5,8,8-tetramethyl-5,6,7,8-tetrahydro-2-naphthyl)propenyl]benzoic acid), of the 100% control (100 nM 4-[2-(5,5,8,8-tetramethyl-5,6,7,8-tetrahydro-2-naphthyl)propenyl]benzoic acid) and of the 0% control (500 nM 4-{(E)-3-[4-(4-tert-butylphenyl)-5,5,8,8-tetramethyl-5,6,7,8-tetrahydro-2-naphthyl]-3-oxopropenyl}benzoic acid) are added at a rate of 5 μl per well. The plates are then incubated for 18 hours at 37° C. and 7% CO2.
(§9) The culture medium is removed by turning over and 100 μl of a 1:1 PBS/luciferine mixture is added to each well. After 5 minutes, the plates are read using the luminescence detector.

In assay [2] the target is T2, RAR beta (Homo sapiens, UniProt P10826).
T2 sequence (P10826 183-417 limits assumed): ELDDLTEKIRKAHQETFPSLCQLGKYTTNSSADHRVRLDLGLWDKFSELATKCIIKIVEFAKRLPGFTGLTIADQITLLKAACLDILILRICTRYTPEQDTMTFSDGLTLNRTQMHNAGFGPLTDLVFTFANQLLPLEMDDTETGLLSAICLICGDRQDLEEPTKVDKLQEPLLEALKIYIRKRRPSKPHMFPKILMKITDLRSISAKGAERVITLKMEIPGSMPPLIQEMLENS
Description: Transactivation test (luciferase reporter, HeLa cells), RAR beta. The following applies: HeLa stable transfectants; for Kd: Schild regression against reference agonist 4-[2-(5,5,8,8-tetramethyl-5,6,7,8-tetrahydro-2-naphthyl)propenyl]benzoic acid, read-out: RAR beta Kdapp; for IC50: reference ligand at the concentration that gives 80% activation. The procedure: as §1, §2, §3, §4, §5, §6, §7, §8, §9
(In general: In a reporter assay the amount or activity of a reporter protein is the signal.)

Assay [3] addresses T3, RAR gamma (Homo sapiens, UniProt P13631).
T3 sequence (P13631 185-419 limits assumed): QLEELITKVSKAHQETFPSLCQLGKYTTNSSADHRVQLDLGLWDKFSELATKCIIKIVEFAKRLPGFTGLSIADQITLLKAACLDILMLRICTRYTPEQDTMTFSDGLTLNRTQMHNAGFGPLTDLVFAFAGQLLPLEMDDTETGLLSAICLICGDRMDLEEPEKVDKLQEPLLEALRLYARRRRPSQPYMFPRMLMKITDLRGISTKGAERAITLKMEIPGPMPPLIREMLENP
As to the kind of experiment: Transactivation test (luciferase reporter, HeLa cells), RAR gamma. The settings on record: HeLa stable transfectants; for Kd: Schild regression against reference agonist 4-[2-(5,5,8,8-tetramethyl-5,6,7,8-tetrahydro-2-naphthyl)propenyl]benzoic acid, read-out: RAR gamma Kdapp; for IC50: reference ligand at the concentration that gives 80% activation. As to the method: as §1, §2, §3, §4, §5, §6, §7, §8, §9

From patent publication US7326803B2, “Ligand inhibitors of the RAR receptors, process for preparing same and therapeutic/cosmetic applications thereof” (Galderma Research & Development, priority 2002, dated 2008) come the findings set out here.

The structures appear in SMILES notation.

In general, IC50 refers to the midpoint of a concentration-inhibition curve. As for `Cc1cccc(COc2cc([Se]C#Cc3ccc(C(=O)O)cc3)cc3c2C(C)(C)CCC3(C)C)c1` [Ex 10, 4-[5,5,8,8-tetramethyl-4-(3-methylbenzyloxy)-5,6,7,8-tetrahydro-2-naphthylselanylethynyl]benzoic acid], the Kd in assay [1] stood at 30 nM; in assay [2] it was 15 nM; in assay [3], 4 nM. For the same compound, the figures for the IC50 in assay [1], in assay [2] and in assay [3] were 52.5 nM, 24 nM and 10 nM, respectively.

Consider `CC1(C)CCC(C)(C)c2c(OCc3ccc(F)cc3)cc([Se]C#Cc3ccc(C(=O)O)cc3)cc21` [Ex 11, 4-[5,5,8,8-tetramethyl-4-(4-fluorobenzyloxy)-5,6,7,8-tetrahydro-2-naphthylselanylethynyl]benzoic acid], for which the Kd in assay [1] was determined as 8 nM; in assay [2] it was 4 nM; in assay [3] it was 1 nM. Further, the IC50 in assay [1] is 14 nM; in assay [2], 6.4 nM; in assay [3], 2.5 nM.

On to `CC1(C)CCC(C)(C)c2c(OCc3ccc(F)c(F)c3)cc([Se]C#Cc3ccc(C(=O)O)cc3)cc21` [Ex 4, 4-[4-(3,4-difluorobenzyloxy)-5,5,8,8-tetramethyl-5,6,7,8-tetrahydro-2-naphthylselanylethynyl]benzoic acid], for which the Kd in assay [1] amounted to 2 nM; in assay [2], 4 nM; in assay [3] it was 1 nM. The figures for the IC50 in assay [1], in assay [2] and in assay [3] were 3.5 nM, 6.4 nM and 2.5 nM, respectively.

`CC(C)(C)c1ccc(COc2cc([Se]C#Cc3ccc(C(=O)O)cc3)cc3c2C(C)(C)CCC3(C)C)cc1` [Ex 3, 4-[4-(4-tert-butylbenzyloxy)-5,5,8,8-tetramethyl-5,6,7,8-tetrahydro-2-naphthylselanylethynyl]benzoic acid]: the Kd in assay [1] was 15 nM; in assay [2], 30 nM; in assay [3], 4 nM. Besides, the IC50 in assay [1] came out at 26.3 nM; in assay [2] it was 48 nM; in assay [3], 10 nM.

As for `CC1(C)CCC(C)(C)c2c(OCc3cccc(F)c3)cc([Se]C#Cc3ccc(C(=O)O)cc3)cc21` [Ex 1, 4-[4-(3-fluorobenzyloxy)-5,5,8,8-tetramethyl-5,6,7,8-tetrahydro-2-naphthylselanylethynyl]benzoic acid], the values for the Kd in assay [1], in assay [2] and in assay [3] were 8 nM, 4 nM and 2 nM, respectively. Besides, the IC50 in assay [1] is 14 nM; in assay [2], 6.5 nM; in assay [3] it was 5 nM.

As to `CC1(C)CCC(C)(C)c2c(OCc3ccc(F)cc3F)cc([Se]C#Cc3ccc(C(=O)O)cc3)cc21` [Ex 5, 4-[4-(2,4-difluorobenzyloxy)-5,5,8,8-tetramethyl-5,6,7,8-tetrahydro-2-naphthylselanylethynyl]benzoic acid], the Kd in assay [1] amounted to 2 nM; in assay [2], 1 nM; in assay [3], 1 nM. Further, the IC50 in assay [1] turned out to be 3.5 nM; in assay [2] it was 1.6 nM; in assay [3] it was 2.5 nM.
